Assay results reported in PubChem BioAssay AID2060336 (Molecular Pharmacology Branch, DTP, NCI, 2025).

Tested on: 958767-090-R-J1-PDC spheroid growth
Assay: Anticancer human tumor 958767-090-R-J1-PDC patient-derived head and neck squamous carcinoma cell line growth inhibition [IpAb]
Settings: spheroids with HUVEC and MSC; for IC50: curve of first compound; for viability, T/C: stronger effect = lower value
Procedure, shortened: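 Multi-cell spheroids of 60% tumour cells, 25% HUVEC and 15% MSC in ultra-low-attachment U-bottom wells, treated with agents combined with ipatasertib or abemaciclib. Half-log ranges top out near clinical Cmax, or 10 microM when Cmax is unknown.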

[1] = second compound 0.1 µM, first compound 0.00316 µM
[2] = second compound 0.1 µM, first compound 0.01 µM
[3] = second compound 0.1 µM, first compound 0.0316 µM
[4] = second compound 0.1 µM, first compound 0.1 µM
[5] = second compound 0.316 µM, first compound 0.00316 µM
[6] = second compound 0.316 µM, first compound 0.01 µM
[7] = second compound 0.316 µM, first compound 0.0316 µM
[8] = second compound 0.316 µM, first compound 0.1 µM
[9] = second compound 1 µM, first compound 0.00316 µM
[10] = second compound 1 µM, first compound 0.01 µM
[11] = second compound 1 µM, first compound 0.0316 µM
[12] = second compound 1 µM, first compound 0.1 µM
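Note: spheroids exposed to agents for 7 days.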
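Throughout, for viability, T/C: 100% = DMSO vehicle control wells.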

Structure (SMILES): CC(C)n1nc(-c2ccc3oc(N)nc3c2)c2c(N)ncnc21 + CC(C)NCC(C(=O)N1CCN(c2ncnc3c2C(C)CC3O)CC1)c1ccc(Cl)cc1
- IC50 (second compound 0.1 µM): 9.11 nM
- IC50 (second compound 0.316 µM): 1.82 nM
- IC50 (second compound 1 µM): 1.13 nM
- IC50 (second compound 3.16 µM): 0.83 nM
- IC50 (second compound 10 µM): < 0.316 nM
- viability, T/C (second compound 0.1 µM, first compound 0.000316 µM): 78.4%
- viability, T/C (second compound 0.1 µM, first compound 0.001 µM): 72.8%
- viability, T/C [1]: 53.6%
- viability, T/C [2]: 57.9%
- viability, T/C [3]: 32.8%
- viability, T/C [4]: 32.6%
- viability, T/C (second compound 0.316 µM, first compound 0.000316 µM): 72.4%
- viability, T/C (second compound 0.316 µM, first compound 0.001 µM): 58.5%
- viability, T/C [5]: 43.5%
- viability, T/C [6]: 29.8%
- viability, T/C [7]: 37.4%
- viability, T/C [8]: 33.4%
- viability, T/C (second compound 1 µM, first compound 0.000316 µM): 59.1%
- viability, T/C (second compound 1 µM, first compound 0.001 µM): 51.9%
- viability, T/C [9]: 40.7%
- viability, T/C [10]: 34%
- viability, T/C [11]: 29.1%
- viability, T/C [12]: 25%
- viability, T/C (second compound 3.16 µM, first compound 0.000316 µM): 61.4%
- viability, T/C (second compound 3.16 µM, first compound 0.001 µM): 47.2%
- viability, T/C (second compound 3.16 µM, first compound 0.00316 µM): 37.2%
- viability, T/C (second compound 3.16 µM, first compound 0.01 µM): 26%
- viability, T/C (second compound 3.16 µM, first compound 0.0316 µM): 21.1%
- viability, T/C (second compound 3.16 µM, first compound 0.1 µM): 17.2%
- viability, T/C (second compound 10 µM, first compound 0.000316 µM): 47.4%
- viability, T/C (second compound 10 µM, first compound 0.001 µM): 42.5%
- viability, T/C (second compound 10 µM, first compound 0.00316 µM): 34.6%
- viability, T/C (second compound 10 µM, first compound 0.01 µM): 17%
- viability, T/C (second compound 10 µM, first compound 0.0316 µM): 13.6%
- viability, T/C (second compound 10 µM, first compound 0.1 µM): 13%

Structure (SMILES): CC(C)NCC(C(=O)N1CCN(c2ncnc3c2C(C)CC3O)CC1)c1ccc(Cl)cc1 (configuration not stated)
- viability, T/C (compound 0.1 µM): 90.6% [middle of 13 runs]
- viability, T/C (compound 1 µM): 50.7% [middle of 13 runs]

Structure (SMILES): CC(C)(C)c1cnc(CSc2cnc(NC(=O)C3CCNCC3)s2)o1 + CC(C)NCC(C(=O)N1CCN(c2ncnc3c2C(C)CC3O)CC1)c1ccc(Cl)cc1
- IC50 (second compound 0.1 µM): 119 nM
- IC50 (second compound 0.316 µM): 115 nM
- IC50 (second compound 1 µM): 95.7 nM
- IC50 (second compound 3.16 µM): 101 nM
- IC50 (second compound 10 µM): 41 nM
- viability, T/C (second compound 0.1 µM, first compound 0.00949 µM): 98.5%
- viability, T/C (second compound 0.1 µM, first compound 0.03 µM): 95.1%
- viability, T/C (second compound 0.1 µM, first compound 0.0949 µM): 61.2%
- viability, T/C (second compound 0.1 µM, first compound 0.3 µM): 3.88%
- viability, T/C (second compound 0.1 µM, first compound 0.949 µM): 2.72%
- viability, T/C (second compound 0.1 µM, first compound 3 µM): 2.41%
- viability, T/C (second compound 0.316 µM, first compound 0.00949 µM): 80.6%
- viability, T/C (second compound 0.316 µM, first compound 0.03 µM): 82.5%
- viability, T/C (second compound 0.316 µM, first compound 0.0949 µM): 59.5%
- viability, T/C (second compound 0.316 µM, first compound 0.3 µM): 2.24%
- viability, T/C (second compound 0.316 µM, first compound 0.949 µM): 2.31%
- viability, T/C (second compound 0.316 µM, first compound 3 µM): 2.18%
- viability, T/C (second compound 1 µM, first compound 0.00949 µM): 72%
- viability, T/C (second compound 1 µM, first compound 0.03 µM): 68%
- viability, T/C (second compound 1 µM, first compound 0.0949 µM): 50.4%
- viability, T/C (second compound 1 µM, first compound 0.3 µM): 1.77%
- viability, T/C (second compound 1 µM, first compound 0.949 µM): 1.65%
- viability, T/C (second compound 1 µM, first compound 3 µM): 2.3%
- viability, T/C (second compound 3.16 µM, first compound 0.00949 µM): 63.6%
- viability, T/C (second compound 3.16 µM, first compound 0.03 µM): 62.9%
- viability, T/C (second compound 3.16 µM, first compound 0.0949 µM): 52.6%
- viability, T/C (second compound 3.16 µM, first compound 0.3 µM): 1.26%
- viability, T/C (second compound 3.16 µM, first compound 0.949 µM): 1.8%
- viability, T/C (second compound 3.16 µM, first compound 3 µM): 1.85%
- viability, T/C (second compound 10 µM, first compound 0.00949 µM): 52.6%
- viability, T/C (second compound 10 µM, first compound 0.03 µM): 68.9%
- viability, T/C (second compound 10 µM, first compound 0.0949 µM): 21.1%
- viability, T/C (second compound 10 µM, first compound 0.3 µM): 1.62%
- viability, T/C (second compound 10 µM, first compound 0.949 µM): 1.38%
- viability, T/C (second compound 10 µM, first compound 3 µM): 1.87%

Structure (SMILES): COc1c(OCCCN2CCOCC2)ccc2c3n(c(=NC(=O)c4cnc(N)nc4)nc12)CCN3 + CCN1CCN(Cc2ccc(Nc3ncc(F)c(-c4cc(F)c5nc(C)n(C(C)C)c5c4)n3)nc2)CC1
- IC50 (second compound 0.01 µM): 7.95 nM
- IC50 (second compound 0.0316 µM): 8.66 nM
- IC50 (second compound 0.1 µM): < 3.16 nM
- IC50 (second compound 0.316 µM): 4.34 nM
- IC50 (second compound 1 µM): 13 nM
- viability, T/C (second compound 0.01 µM, first compound 0.00316 µM): 64.5%
- viability, T/C (second compound 0.01 µM, first compound 0.01 µM): 44.5%
- viability, T/C (second compound 0.01 µM, first compound 0.0316 µM): 31.5%
- viability, T/C (second compound 0.01 µM, first compound 0.1 µM): 12.7%
- viability, T/C (second compound 0.01 µM, first compound 0.316 µM): 6.31%
- viability, T/C (second compound 0.01 µM, first compound 1 µM): 3.91%
- viability, T/C (second compound 0.0316 µM, first compound 0.00316 µM): 62.6%
- viability, T/C (second compound 0.0316 µM, first compound 0.01 µM): 48.8%
- viability, T/C (second compound 0.0316 µM, first compound 0.0316 µM): 28.5%
- viability, T/C (second compound 0.0316 µM, first compound 0.1 µM): 17%
- viability, T/C (second compound 0.0316 µM, first compound 0.316 µM): 5.97%
- viability, T/C (second compound 0.0316 µM, first compound 1 µM): 5.05%
- viability, T/C [1]: 44.3%
- viability, T/C [2]: 39.5%
- viability, T/C [3]: 22.5%
- viability, T/C [4]: 15.9%
- viability, T/C (second compound 0.1 µM, first compound 0.316 µM): 7.66%
- viability, T/C (second compound 0.1 µM, first compound 1 µM): 6.13%
- viability, T/C [5]: 53%
- viability, T/C [6]: 42.6%
- viability, T/C [7]: 22.9%
- viability, T/C [8]: 19.4%
- viability, T/C (second compound 0.316 µM, first compound 0.316 µM): 8.1%
- viability, T/C (second compound 0.316 µM, first compound 1 µM): 7.06%
- viability, T/C [9]: 74.1%
- viability, T/C [10]: 53.5%
- viability, T/C [11]: 37%
- viability, T/C [12]: 26.9%
- viability, T/C (second compound 1 µM, first compound 0.316 µM): 14.7%
- viability, T/C (second compound 1 µM, first compound 1 µM): 12.4%
